Results reported in ChEMBL document CHEMBL1201862, “PubChem BioAssay data set” (2004).
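Method: 48-hour compound exposure of cells in 96-well plates, five concentrations, linear interpolation of endpoints. GI50 = concentration required for 50% inhibition of growth.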 Calls of active or inactive are those of the source. Cut-off read from the data, not from the text of the source: active = GI50 up to about 1.1 µM and inactive = higher.

How the values were obtained:
Assay in all cases: NCI anticancer screen, dose series, 48 h
[1] = test system: SF-295
[2] = test system: HT-29
[3] = test system: SNB-75
[4] = test system: TK-10
[5] = test system: LOX IMVI
[6] = test system: SK-MEL-28
[7] = test system: HL-60
[8] = test system: OVCAR-3
[9] = test system: K562
[10] = test system: HCC 2998
[11] = test system: SF-539
[12] = test system: OVCAR-8
[13] = test system: Malme-3M
[14] = test system: NCI-H226
[15] = test system: COLO 205
[16] = test system: CAKI-1
[17] = test system: OVCAR-5

| SMILES | GI50 [1] | GI50 [2] | GI50 [3] | GI50 [4] | GI50 [5] | GI50 [6] | GI50 [7] | GI50 [8] | GI50 [9] | GI50 [10] | GI50 [11] | GI50 [12] | GI50 [13] | GI50 [14] | GI50 [15] | GI50 [16] | GI50 [17] |
| --- | --- | --- | --- | --- | --- | --- | --- | --- | --- | --- | --- | --- | --- | --- | --- | --- | --- |
| C[C@@H](N[C@H]1CCC[C@@H]1O)c1ccccc1.C[C@@H](N[C@H]1CCC[C@H]1O)c1ccccc1 | 40.4 µM (inactive) | 38.1 µM (inactive) | > 100 µM (inactive) | 90.4 µM (inactive) | 34.4 µM (inactive) | 58.3 µM (inactive) | 43.6 µM (inactive) | > 100 µM (inactive) | 44.9 µM (inactive) | 65.8 µM (inactive) | > 100 µM (inactive) | > 100 µM (inactive) | > 100 µM (inactive) | 19.9 µM (inactive) | 75.7 µM (inactive) | – | – |
| O=C(NCCc1ccccc1)C1C(=O)C(=O)N(CCc2ccccc2)C1=O (stereo not given) | > 100 µM (inactive) | > 100 µM (inactive) | > 100 µM (inactive) | > 100 µM (inactive) | > 100 µM (inactive) | > 100 µM (inactive) | > 100 µM (inactive) | > 100 µM (inactive) | > 100 µM (inactive) | – | > 100 µM (inactive) | – | > 100 µM (inactive) | > 100 µM (inactive) | – | > 100 µM (inactive) | – |
| COc1cccc(NC(=O)CC(=O)N2N=C(N(CCC#N)c3ccccc3C)CC2c2ccccc2)c1 (stereo not given) | > 100 µM (inactive) | > 100 µM (inactive) | > 100 µM (inactive) | – | – | > 100 µM (inactive) | > 100 µM (inactive) | > 100 µM (inactive) | > 100 µM (inactive) | > 100 µM (inactive) | > 100 µM (inactive) | > 100 µM (inactive) | > 100 µM (inactive) | > 100 µM (inactive) | > 100 µM (inactive) | > 100 µM (inactive) | > 100 µM (inactive) |
| COc1ccc2c(c1O)C(=O)C(CCC(=O)O)CC2 (stereo not given) | 30.9 µM (inactive) | > 100 µM (inactive) | > 100 µM (inactive) | > 100 µM (inactive) | > 100 µM (inactive) | > 100 µM (inactive) | > 100 µM (inactive) | > 100 µM (inactive) | – | > 100 µM (inactive) | > 100 µM (inactive) | > 100 µM (inactive) | – | – | > 100 µM (inactive) | > 100 µM (inactive) | – |
| CC(=O)OCC1=C(C(=O)O)C(c2ccc3c(c2)OCO3)c2cc3c(cc2O1)OCO3 (stereo not given) | > 100 µM (inactive) | > 100 µM (inactive) | 53.8 µM (inactive) | > 100 µM (inactive) | > 100 µM (inactive) | > 100 µM (inactive) | > 100 µM (inactive) | > 100 µM (inactive) | > 100 µM (inactive) | – | > 100 µM (inactive) | > 100 µM (inactive) | > 100 µM (inactive) | – | > 100 µM (inactive) | > 100 µM (inactive) | – |
| NNC(=S)N/N=C(\CCCC(=O)NCCc1ccccc1)CC(=O)c1ccccc1 | > 100 µM (inactive) | > 100 µM (inactive) | – | > 100 µM (inactive) | – | > 100 µM (inactive) | > 100 µM (inactive) | > 100 µM (inactive) | – | > 100 µM (inactive) | > 100 µM (inactive) | > 100 µM (inactive) | > 100 µM (inactive) | – | > 100 µM (inactive) | – | > 100 µM (inactive) |
| CCCNC1=C(C)C(=O)C2=C(C1=O)[C@H](COC(N)=O)[C@]1(OC)[C@@H]3N[C@@H]3CN21 | 2.39 µM (inactive) | 9.31 µM (inactive) | 1.67 µM (inactive) | – | 1.6 µM (inactive) | 19.8 µM (inactive) | 0.394 µM (active) | 11.6 µM (inactive) | 12.1 µM (inactive) | 3.79 µM (inactive) | 4.39 µM (inactive) | 10 µM (inactive) | 6.07 µM (inactive) | 6.27 µM (inactive) | 3.94 µM (inactive) | 4.57 µM (inactive) | 13.7 µM (inactive) |
| O=C(c1cccs1)N(C(=S)N1CCN(c2ccccc2)CC1)C1CCCCC1 | > 100 µM (inactive) | > 100 µM (inactive) | > 100 µM (inactive) | > 100 µM (inactive) | > 100 µM (inactive) | > 100 µM (inactive) | 22.1 µM (inactive) | > 100 µM (inactive) | > 100 µM (inactive) | – | > 100 µM (inactive) | > 100 µM (inactive) | > 100 µM (inactive) | – | > 100 µM (inactive) | > 100 µM (inactive) | > 100 µM (inactive) |
| O=P(Nc1ccccc1)(Oc1ccccc1)N(CCCl)CCCl (stereo not given) | 69.3 µM (inactive) | > 100 µM (inactive) | > 100 µM (inactive) | > 100 µM (inactive) | – | > 100 µM (inactive) | 14.8 µM (inactive) | > 100 µM (inactive) | > 100 µM (inactive) | > 100 µM (inactive) | > 100 µM (inactive) | 71.9 µM (inactive) | > 100 µM (inactive) | > 100 µM (inactive) | > 100 µM (inactive) | > 100 µM (inactive) | > 100 µM (inactive) |
| CSCCC(NC(=O)C(Cc1ccccc1)NC(=O)CNC(=O)CNC(=O)C(N)Cc1ccc(O)cc1)C(=O)O (stereo not given) | > 100 µM (inactive) | > 100 µM (inactive) | > 90.2 µM (inactive) | – | > 100 µM (inactive) | > 100 µM (inactive) | > 100 µM (inactive) | > 100 µM (inactive) | > 100 µM (inactive) | > 100 µM (inactive) | > 100 µM (inactive) | > 100 µM (inactive) | > 100 µM (inactive) | – | > 100 µM (inactive) | > 100 µM (inactive) | > 55.5 µM (inactive) |
| CCCc1ccc(NCc2cc(OC)c(OC)c(OC)c2)cc1 | – | 23.6 µM (inactive) | 29 µM (inactive) | 59.8 µM (inactive) | 15.7 µM (inactive) | 25.1 µM (inactive) | – | – | 12.1 µM (inactive) | – | 28.3 µM (inactive) | 35.3 µM (inactive) | 19.4 µM (inactive) | – | – | – | 26.6 µM (inactive) |
| COc1ccc(OC(C)C(=O)O)c2c(=O)ccccc12 (stereo not given) | > 100 µM (inactive) | > 100 µM (inactive) | > 100 µM (inactive) | > 100 µM (inactive) | > 100 µM (inactive) | > 100 µM (inactive) | > 100 µM (inactive) | > 100 µM (inactive) | > 100 µM (inactive) | > 100 µM (inactive) | > 100 µM (inactive) | > 100 µM (inactive) | > 100 µM (inactive) | > 100 µM (inactive) | > 100 µM (inactive) | – | > 100 µM (inactive) |
| COc1ccc(C[C@H](N)C(=O)N2C[C@@H](CO)C[C@@H](n3ccc(=O)[nH]c3=O)C2)cc1 | – | > 100 µM (inactive) | – | > 100 µM (inactive) | > 100 µM (inactive) | > 100 µM (inactive) | > 100 µM (inactive) | > 100 µM (inactive) | > 100 µM (inactive) | > 100 µM (inactive) | > 100 µM (inactive) | > 100 µM (inactive) | > 100 µM (inactive) | > 100 µM (inactive) | > 100 µM (inactive) | > 100 µM (inactive) | > 100 µM (inactive) |
| COc1ccc2oc(-c3ccncc3)cc(=O)c2c1 | > 100 µM (inactive) | > 100 µM (inactive) | > 100 µM (inactive) | – | 57.5 µM (inactive) | > 100 µM (inactive) | > 100 µM (inactive) | > 100 µM (inactive) | > 100 µM (inactive) | > 100 µM (inactive) | – | – | 39.8 µM (inactive) | > 100 µM (inactive) | > 100 µM (inactive) | 33.2 µM (inactive) | > 100 µM (inactive) |
| COc1ccc(OC)c(CC(C)N)c1 (stereo not given) | > 100 µM (inactive) | > 100 µM (inactive) | > 100 µM (inactive) | > 100 µM (inactive) | > 100 µM (inactive) | > 100 µM (inactive) | – | > 100 µM (inactive) | > 100 µM (inactive) | > 100 µM (inactive) | > 100 µM (inactive) | > 100 µM (inactive) | > 100 µM (inactive) | > 100 µM (inactive) | > 100 µM (inactive) | > 100 µM (inactive) | – |
| C[C@]12C/C(=C/O)C(=O)C(O)=C1CC[C@@H]1C2CC[C@@]2(C)C1CC[C@@H]2O (stereo not given in full) | 26.7 µM (inactive) | 25.3 µM (inactive) | 20.4 µM (inactive) | 42.1 µM (inactive) | 12 µM (inactive) | 21.5 µM (inactive) | 17.3 µM (inactive) | 17.9 µM (inactive) | 22.3 µM (inactive) | – | 18.7 µM (inactive) | 27.1 µM (inactive) | 20.8 µM (inactive) | 19.6 µM (inactive) | 21.2 µM (inactive) | 26.1 µM (inactive) | 21 µM (inactive) |
| O=c1c(C(c2ccc(Cl)cc2)c2c(O)c3ccccc3n(-c3ccccc3)c2=O)c(O)c2ccccc2n1-c1ccccc1 | 14.4 µM (inactive) | – | – | 67.8 µM (inactive) | 18.8 µM (inactive) | > 100 µM (inactive) | – | 29 µM (inactive) | 40.5 µM (inactive) | 23.3 µM (inactive) | 19.1 µM (inactive) | 29.4 µM (inactive) | 21.9 µM (inactive) | 73.6 µM (inactive) | 30.8 µM (inactive) | 28.2 µM (inactive) | > 100 µM (inactive) |
| Cc1ccc(C(C)(C)C[P+](C)(c2ccccc2)c2ccccc2)cc1 | 26.7 µM (inactive) | 4.46 µM (inactive) | 8.18 µM (inactive) | – | 7.76 µM (inactive) | 8.51 µM (inactive) | 1.75 µM (inactive) | 3.24 µM (inactive) | 5 µM (inactive) | 9.73 µM (inactive) | 28 µM (inactive) | 12.7 µM (inactive) | 4.18 µM (inactive) | 15.6 µM (inactive) | 4.42 µM (inactive) | 23.9 µM (inactive) | 18.1 µM (inactive) |
